Target: PD-1/PD-L1 (Homo sapiens (Human), UniProt Q9NZQ7)
Assay: Homogenouse Time-Resolved Fluorescence (HTRF) binding assay PD-1/PD-L1
Settings: CisBio kit #64CUS000C-1
Experimental: Homogenouse Time-Resolved Fluorescence (HTRF) binding assay was used to determine the binding activity of the compound of the present disclosure to PD-1/PD-L1.
The purchased kit (CisBio, #64CUS000C-1) contained the reagents required for experiments such as PD-1, PD-L1, anti-tag1-Eu, Anti-tag2-XL665, Dilute Buffer and Detection Buffer.
1. The compound was formulated to 10 concentrations with a three-fold concentration gradient with 100% DMSO.
2. The solution of the compound in DMSO was added to Dilute Buffer, and mixed evenly and then transferred to a 96-well plate.
3. PD-L1 was diluted with Dilute Buffer and added to the 96-well plate above.
4. PD-1 was diluted with Dilute Buffer, then added to the 96-well plate above and incubated at room temperature for 30 minutes.
5. One portion of anti-tag1-Eu and one portion of anti-tag2-XL665 were added to Detection Buffer, mixed evenly and transferred to the 96-well plate above.
6. The mixed solution in the 96-well plate were incubated at room temperature for 1 to 24 hours.
7. HTRF values were read by Envision.

Chain of PD-1/PD-L1 (Q9NZQ7 19-238): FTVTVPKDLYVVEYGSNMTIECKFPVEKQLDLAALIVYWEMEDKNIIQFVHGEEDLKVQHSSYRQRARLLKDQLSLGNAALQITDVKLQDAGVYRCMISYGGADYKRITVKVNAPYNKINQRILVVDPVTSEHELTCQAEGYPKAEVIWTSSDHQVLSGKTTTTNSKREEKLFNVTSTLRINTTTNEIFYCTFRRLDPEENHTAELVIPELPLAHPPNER

IC50	Structure (SMILES)
1300 nM	Cc1c(/C=C/c2cc(CN[C@@](C)(CO)C(=O)O)ccc2C(F)(F)F)cccc1-c1cn2ccnc2cn1 [Compound 37]
> 10000 nM	Cc1c(/C=C/c2cc(CN[C@@](C)(CO)C(=O)O)ccc2C(F)(F)F)cccc1-c1ccc2nccn2c1 [Compound 36]
540 nM	Cc1nc2ccc(-c3cccc(/C=C/c4cc(CN[C@@](C)(CO)C(=O)O)ccc4C(F)(F)F)c3C)cc2o1 [Compound 43, (S,E)-3-hydroxy-2-methyl-2-(3-(2-methyl-3-(2-methylbenzo[d]oxazol-6-yl)-styryl)-4-(trifluoromethyl)benzylamino)-3-hydroxy-2-methylpropanoic acid]

— patent publication US11384048B2, “Aromatic vinyl or aromatic ethyl derivative, preparation method therefor, intermediate, pharmaceutical composition, and application” (GUANGZHOU MAXINOVEL PHARMACEUTICALS CO., LTD., priority 2017, dated 2022)
